Measurements: publication PMC7601839, “Anti-Acne Effects of Cembrene Diterpenoids from the Cultured Soft Coral Sinularia flexibilis” (Marine Drugs, 2020)

Tests used:
iNOS [1] = test system: iNOS; set-up: method as in PMID 23774887; settings: LPS-stimulated RAW264.7 macrophage cells; cited from earlier work
COX-2 [2] = test system: COX-2; set-up: method as in PMID 23774887; settings: LPS-stimulated RAW264.7 macrophage cells; cited from earlier work
iNOS [3] = test system: iNOS; set-up: method as in PMID 23675440; settings: LPS-stimulated murine macrophages; cited from earlier work
COX-2 [4] = test system: COX-2; set-up: method as in PMID 23675440; settings: LPS-stimulated murine macrophages; cited from earlier work
[5] = test system: LPS-induced RAW 264.7 cells (NO production); assay: NO production (Griess) in LPS-induced RAW 264.7 cells; assay type: cell-based
Procedure: (§1) Anti-inflammatory effects were analyzed in RAW 264.7 cells, which were cultured in DMEM with 10% FBS, 1% L-glutamine, and 1% penicillin-streptomycin, and maintained at 37 °C in a 5% CO2 atmosphere. RAW 264.7 cells (4.0 × 10^5 cells/mL) were seeded in 96-well plates and co-treated with LPS (500 ng/mL) and test samples. After 24 h, NO production was determined by Griess reagent, and the absorption was detected at 530 nm. The percentage inhibition of NO production was presented as the anti-inflammatory activity. PGE2 concentrations in cell culture media were determined with a PGE2 enzyme-linked immunosorbent assay (ELISA) kit (Enzo Life Sciences, Farmingdale, NY, USA). The survival rate of RAW 264.7 cells was detected using an MTT assay.

RAW 264.7 cells = assay: Survival rate of RAW 264.7 cells by MTT assay; assay type: cell-based; settings: LPS-induced RAW 264.7 cells, 24 h, 20 μM
Procedure: as §1

A375 melanoma cells = test system: A375 melanoma cells; set-up: method as in PMID 23880933; settings: cited from earlier work

Compound	accumulation of the proinflammatory iNOS protein (iNOS [1])	accumulation of COX-2 protein (COX-2 [2])	expression of induced nitric oxide synthase (iNOS) (iNOS [3])	expression of cyclooxygenase (COX)-2 (COX-2 [4])	inhibitory effects on NO expression [5]	NO Inhibition (%) ([5]; 24 h, 20 μM)	Cell Viability (%) (RAW 264.7 cells)	proliferation and migration of A375 melanoma cells (A375 melanoma cells)
C=C1C(=O)O[C@]2(C)CC[C@@H]1C[C@@H]1O[C@@]1(C)CC/C=C(\C)CC[C@H]2OC(C)=O [Ya-s11, 11-Episinulariolide acetate]	significantly inhibit	could reduce	inhibits the expression	inhibits the expression	–	–	–	–
sinulariolide [SC-4]	significantly inhibit	–	–	–	no inhibitory effects	−4.3 ± 1.6%	98.8 ± 1.2%	inhibits the proliferation and migration
